Legend:
[1] = system: IL-2 release from stimulated Jurkat cells; assay: Human IL-2 Release Phenotypic Assay (Assay 3); format: cell-based; settings: Jurkat cells (clone E6-1), 200 ng/mL PMA + 300 ng/mL ionomycin, IL-2 by ELISA
Description: This assay measured the inhibition by MALT1 inhibitors of the IL-2 release from stimulated Jurkat cells, a human immortalized T lymphocyte cell line. IL-2 production from Jurkat cells is regulated by activation of NFκB signalling, which is in turn regulated by MALT1 protease activity.
Jurkat cells (clone E6-1, ATCC) were cultured in RPMI1640 supplemented with 10% (v/v) FBS and 1% (v/v) penicillin/streptomycin (100× liquid stocks). Cells were seeded in 96-well white tissue culture-treated plates (Perkin Elmer) at 50 000 cells/well and incubated overnight at 37° C., 5% CO2. Test compounds in DMSO at half-log dilutions were added to the cells and incubated for 30 mins. Final DMSO concentration was 0.5%. Cells were then stimulated with 200 ng/mL PMA+300 ng/mL ionomycin and incubated for 48 hours. […] IC50 values were calculated using GraphPad Prism using 4-parameter non-linear regression curve fit.

[2] = biological target: T1, FL hMALT1 enzyme (Homo sapiens, UniProt Q9UDY8); assay: biochemical;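 further: Cell-free protease assay: enzyme preincubated with compound 30 min at room temperature, then cleavage of fluorogenic Ac-LVSR-AMC substrate (100 µM) tracked by fluorescence (ex 360/em 460 nm)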
T1 sequence (Q9UDY8 1-824): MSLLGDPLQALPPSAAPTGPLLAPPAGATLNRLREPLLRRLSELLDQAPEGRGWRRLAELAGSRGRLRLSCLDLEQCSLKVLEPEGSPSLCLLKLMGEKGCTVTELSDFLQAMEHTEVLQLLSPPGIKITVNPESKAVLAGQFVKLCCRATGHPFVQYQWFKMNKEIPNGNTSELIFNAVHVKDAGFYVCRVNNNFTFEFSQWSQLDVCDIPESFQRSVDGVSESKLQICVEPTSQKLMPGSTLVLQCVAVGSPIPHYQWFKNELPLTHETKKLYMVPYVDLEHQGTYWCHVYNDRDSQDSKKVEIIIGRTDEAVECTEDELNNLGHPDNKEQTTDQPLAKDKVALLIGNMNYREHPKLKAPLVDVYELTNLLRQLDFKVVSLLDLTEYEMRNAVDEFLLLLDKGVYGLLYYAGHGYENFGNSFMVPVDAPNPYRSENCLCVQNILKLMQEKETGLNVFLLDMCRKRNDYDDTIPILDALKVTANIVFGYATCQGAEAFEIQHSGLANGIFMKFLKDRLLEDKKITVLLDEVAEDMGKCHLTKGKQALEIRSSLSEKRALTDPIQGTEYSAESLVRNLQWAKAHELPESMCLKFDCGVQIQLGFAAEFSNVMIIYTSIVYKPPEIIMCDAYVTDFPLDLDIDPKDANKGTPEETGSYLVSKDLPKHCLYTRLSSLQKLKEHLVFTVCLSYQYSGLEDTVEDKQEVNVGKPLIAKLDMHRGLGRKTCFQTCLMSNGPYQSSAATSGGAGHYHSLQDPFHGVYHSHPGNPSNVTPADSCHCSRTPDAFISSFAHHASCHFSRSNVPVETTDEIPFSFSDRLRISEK

Structure (SMILES) | IC50 ([1]; Homo sapiens, Jurkat, 48 h) | IC50 [2] | IC50 ([1]; 48 hours)
CN(C(=O)C1CNC(=O)O1)[C@@H](c1ccc(N[C@@H]2Cc3ccccc3C2(C)C)cn1)C(F)(F)F (single isomer, unassigned) [Example 110] |  | 16 nM | 149 nM
CN(C(=O)C1CCNC(=O)C1)[C@@H](c1ccc(NC2Cc3ccccc3C2(C)C)cn1)C(F)(F)F (single isomer, unassigned) [Example 119] |  | 150 nM | 1720 nM
CN(C(=O)C1CCCNC1)[C@@H](c1ccc(NC2Cc3ccccc3C2(C)C)cn1)C(F)(F)F (single isomer, unassigned) [Example 124] |  | 190 nM | 1290 nM
CC(=O)N1CCC[C@H]1C(=O)N(C)[C@@H](c1ccc(N[C@H]2Cc3ccccc3C2(C)C)cn1)C(F)(F)F (single isomer, unassigned) [Example 194] | 630 nM | 53 nM | 
CC(=O)N1C[C@H](O)C[C@H]1C(=O)N(C)[C@@H](c1ccc(N[C@H]2Cc3ccccc3C2(C)C)cn1)C(F)(F)F [Example 183, (2S,4R)-1-Acetyl-N—((S)-1-(5-(((S)-1,1-dimethyl-2,3-dihydro-1H-inden-2-yl)amino)pyridin-2-yl)-2,2,2-trifluoroethyl)-4-hydroxy-N-methylpyrrolidine-2-carboxamide] | 510 nM |  | 
CN(C(=O)[C@@H]1CCC(=O)N1)[C@@H](c1ccc(N[C@H]2Cc3ccccc3C2(C)C)cn1)C(F)(F)F [Example 170, (S)—N—((S)-1-(5-(((S)-1,1-Dimethyl-2,3-dihydro-1H-inden-2-yl)amino)pyridin-2-yl)-2,2,2-trifluoroethyl)-N-methyl-5-oxopyrrolidine-2-carboxamide] | 210 nM |  | 
CC(=O)N[C@H]1C[C@H](C(=O)N(C)[C@@H](c2ccc(N[C@H]3Cc4ccccc4C3(C)C)cn2)C(F)(F)F)C1 [Example 186, (1,3-trans)-3-Acetamido-N—((S)-1-(5-(((S)-1,1-dimethyl-2,3-dihydro-1H-inden-2-yl)amino)pyridin-2-yl)-2,2,2-trifluoroethyl)-N-methylcyclobutane-1-carboxamide] | 460 nM |  | 
CC(=O)N1CC[C@H](C(=O)N(C)[C@@H](c2ccc(N[C@H]3Cc4ccccc4C3(C)C)cn2)C(F)(F)F)C1 [Example 169, (S)-1-Acetyl-N—((S)-1-(5-(((S)-1,1-dimethyl-2,3-dihydro-1H-inden-2-yl)amino)pyridin-2-yl)-2,2,2-trifluoroethyl)-N-methylpyrrolidine-3-carboxamide] | 720 nM |  | 
CC(=O)N1CC[C@@H](C(=O)N(C)[C@@H](c2ccc(N[C@H]3Cc4ccccc4C3(C)C)cn2)C(F)(F)F)C1 [Example 192, (R)-1-Acetyl-N—((S)-1-(5-(((S)-1,1-dimethyl-2,3-dihydro-1H-inden-2-yl)amino)pyridin-2-yl)-2,2,2-trifluoroethyl)-N-methylpyrrolidine-3-carboxamide] | 440 nM |  | 
CN(C(=O)[C@H]1CNC(=O)C1)[C@@H](c1ccc(N[C@H]2Cc3ccccc3C2(C)C)cn1)C(F)(F)F [Example 166, (R)—N—((S)-1-(5-(((S)-1,1-Dimethyl-2,3-dihydro-1H-inden-2-yl)amino)pyridin-2-yl)-2,2,2-trifluoroethyl)-N-methyl-5-oxopyrrolidine-3-carboxamide] | 510 nM |  | 

More lines, now with the values ahead:

IC50 ([1]; Homo sapiens, Jurkat, 48 h) | IC50 [2] | IC50 ([1]; 48 hours) | Structure (SMILES)
170 nM | 51 nM |  | CN(C(=O)[C@H]1CCC(=O)NC1)[C@@H](c1ccc(NC2Cc3ccc(Cl)c(F)c3C2)cn1)C(F)(F)F (single isomer, unassigned) [Example 337]
460 nM | 14 nM |  | CN(C(=O)C1CCS(=O)(=O)CC1)[C@@H](c1ccc(NC2Cc3cccc(C(F)(F)F)c3C2)nc1)C(F)(F)F (single isomer, unassigned) [Example 281]
230 nM | 50 nM |  | CN(C(=O)[C@H]1C[C@H](O)C1)[C@@H](c1ccc(NC2Cc3ccc(Cl)c(F)c3C2)cn1)C(F)(F)F (single isomer, unassigned) [Example 374]
1400 nM | 53 nM |  | CN(C(=O)C1CCS(=O)(=O)CC1)[C@@H](c1ccc(NC2Cc3cccc(C4CC4)c3C2)cn1)C(F)(F)F (single isomer, unassigned) [Example 254]
230 nM | 21 nM |  | CN(C(=O)[C@H]1CC[C@@H](NS(C)(=O)=O)C1)[C@@H](c1ccc(N[C@H]2Cc3ccccc3C2(C)C)cn1)C(F)(F)F [Example 221, (1S,3R)—N—((S)-1-(5-(((S)-1,1-Dimethyl-2,3-dihydro-1H-inden-2-yl)amino)pyridin-2-yl)-2,2,2-trifluoroethyl)-N-methyl-3-(methylsulfonamido)cyclopentane-1-carboxamide]
230 nM | 61 nM |  | CN(C(=O)CC#N)[C@@H](c1ccc(NC2Cc3ccc(Cl)c(Cl)c3C2)cn1)C(F)(F)F (single isomer, unassigned) [Example 350]
430 nM | 94 nM |  | CN(C(=O)C12CC(NS(C)(=O)=O)(C1)C2)[C@@H](c1ccc(N[C@H]2Cc3ccc(Cl)cc3C2)cn1)C(F)(F)F [Example 299, N—((S)-1-(5-(((S)-5-Chloro-2,3-dihydro-1H-inden-2-yl)amino)pyridin-2-yl)-2,2,2-trifluoroethyl)-N-methyl-3-(methylsulfonamido)bicyclo[1.1.1]pentane-1-carboxamide]
460 nM | 55 nM |  | CN(C(=O)C1CCS(=O)(=O)CC1)[C@@H](c1ccc(NC2Cc3c(F)ccc(Cl)c3C2)cn1)C(F)(F)F (single isomer, unassigned) [Example 293]
150 nM |  |  | CN(C(=O)C1CCN(S(C)(=O)=O)CC1)[C@@H](c1ccc(N[C@H]2Cc3ccccc3C2(C)C)cn1)C(F)(F)F [Example 223, N—((S)-1-(5-(((S)-1,1-Dimethyl-2,3-dihydro-1H-inden-2-yl)amino)pyridin-2-yl)-2,2,2-trifluoroethyl)-N-methyl-1-(methylsulfonyl)piperidine-4-carboxamide]
860 nM |  |  | CN(C(=O)CC1CCS(=O)(=O)CC1)[C@@H](c1ccc(N[C@H]2Cc3ccccc3C2(C)C)cn1)C(F)(F)F [Example 196, N—((S)-1-(5-(((S)-1,1-Dimethyl-2,3-dihydro-1H-inden-2-yl)amino)pyridin-2-yl)-2,2,2-trifluoroethyl)-2-(1,1-dioxidotetrahydro-2H-thiopyran-4-yl)-N-methylacetamide]
270 nM |  |  | CN(C(=O)[C@@H]1C[C@@H](O)CN1S(C)(=O)=O)[C@@H](c1ccc(N[C@H]2Cc3ccccc3C2(C)C)cn1)C(F)(F)F [Example 244, (2S,4R)—N—((S)-1-(5-(((S)-1,1-Dimethyl-2,3-dihydro-1H-inden-2-yl)amino)pyridin-2-yl)-2,2,2-trifluoroethyl)-4-hydroxy-N-methyl-1-(methylsulfonyl)pyrrolidine-2-carboxamide]
400 nM |  |  | CN(C(=O)[C@H]1C[C@@H](NS(C)(=O)=O)C1)[C@@H](c1ccc(N[C@H]2Cc3ccccc3C2(C)C)cn1)C(F)(F)F [Example 241, (1,3-cis)-N—((S)-1-(5-(((S)-1,1-Dimethyl-2,3-dihydro-1H-inden-2-yl)amino)pyridin-2-yl)-2,2,2-trifluoroethyl)-N-methyl-3-(methylsulfonamido)cyclobutane-1-carboxamide]
430 nM |  |  | CN(C(=O)[C@@H]1CCC(=O)NC1)[C@@H](c1ccc(N[C@H]2Cc3ccccc3C2(C)C)nc1)C(F)(F)F [Example 218, (R)—N—((S)-1-(6-(((S)-1,1-dimethyl-2,3-dihydro-1H-inden-2-yl)amino)pyridin-3-yl)-2,2,2-trifluoroethyl)-N-methyl-6-oxopiperidine-3-carboxamide]

Reference: US20260184687A1, “DIHYDROINDENE DERIVATIVES AS MALT1 INHIBITORS” (C4X Discovery Limited, priority 2022, published 2026)
